Test results taken from ChEMBL document CHEMBL5316270 (J Med Chem, 2023).
Active and inactive are the calls of the source. The calls are words filed in the database; no cut-off is given here.

How the values were obtained:
[1] = molecular target: T1, mTORC1 (Homo sapiens, UniProt P42345+Q8N122+Q9BVC4); assay type: cell-based, MDA-MB-468
[2] = tested on: Mus musculus; experiment: In vivo inhibition of mTORC1 in human MCF7 cells harboring PIK3CA […] mutation xenografted in Balb/c nude mouse assessed as inhibition of tumor p4EBP1 level at 5 mg/kg,po and measured upto 48 hrs by MSD analysis; assay type: functional, organism-based
[3] = tested on: Mus musculus; experiment: In vivo inhibition of mTORC1 in human MCF7 cells harboring PIK3CA […] mutation xenografted in Balb/c nude mouse assessed as inhibition of tumor p4EBP1 level at 1 mg/kg,ip and measured at 4 hrs by MSD analysis; assay type: functional, organism-based
[4] = tested on: Mus musculus; experiment: In vivo inhibition of mTORC1 in human MCF7 cells harboring PIK3CA […] mutation xenografted in Balb/c nude mouse assessed as inhibition of tumor p4EBP1 level at 1 mg/kg,ip and measured after 24 hrs by MSD analysis; assay type: functional, organism-based
[5] = molecular target: T1, mTORC1; assay type: cell-based, MDA-MB-468; remark: listed apart in the source
[6] = cells; assay type: cell-based; conditions: Homo sapiens, MDA-MB-468
[7] = tested on: NCI-H2122; experiment: Antitumor activity against human NCI-H2122 cells harboring KRAS G12C mutation xenografted in Balb/c nude mouse assessed as reduction in tumor volume at 100 mg/kg,ip qd by caliper measurement analysis; assay type: functional, organism-based
[8] = tested on: NCI-H2122; experiment: Antitumor activity against human NCI-H2122 cells harboring KRAS G12C mutation xenografted in Balb/c nude mouse assessed as reduction in tumor volume at 100 mg/kg,ip qd co-treated with RMC-627 at 10 mg/kg,ip qw by caliper measurement analysis; assay type: functional, organism-based
[9] = Toxicity in Balb/c nude mouse xenografted with human NCI-H2122 cells harboring KRAS G12C mutation assessed as body weight loss at 100 mg/kg,ip qd co-treated with RMC-627 at 10 mg/kg,ip qw; assay type: organism-based; conditions: in vivo
[10] = tested on: NCI-H2122; experiment: Antitumor activity against human NCI-H2122 cells harboring KRAS G12C mutation xenografted in Balb/c nude mouse assessed as induction of apoptosis by measuring caspase-3 level at 100 mg/kg,ip qd co-treated with RMC-627 at 10 mg/kg,ip qw by immunostaining based microscopy; assay type: functional, organism-based
[11] = tested on: NCI-H2122; experiment: Antitumor activity against human NCI-H2122 cells harboring KRAS G12C mutation xenografted in Balb/c nude mouse assessed as induction of apoptosis by measuring caspase-3 level at 100 mg/kg,ip qd by immunostaining based microscopy; assay type: functional, organism-based

SMILES | IC50 [1] [nM] | IC50 [5] [nM] | IC50 [6] [nM] | other results
CO[C@H]1C[C@@H]2CC[C@@H](C)[C@@](O)(O2)C(=O)C(=O)N2CCCC[C@H]2C(=O)O[C@H]([C@H](C)C[C@@H]2CC[C@@H](OCCO)[C@H](OC)C2)CC(=O)[C@H](C)/C=C(\C)[C@@H](O)[C@@H](OC)C(=O)[C@H](C)C[C@H](C)/C=C/C=C/C=C/1C [EVEROLIMUS] | > 1000 |  |  | inhibition [2]: inactive
CO[C@H]1C[C@@H]2CC[C@@H](C)[C@@](O)(O2)C(=O)C(=O)N2CCCC[C@H]2C(=O)O[C@H]([C@H](C)C[C@@H]2CC[C@@H](OCCCCc3cn(CCOCCOCCOCCOCCOCCOCCOCCOCCC(=O)NCCCCn4nc(-c5ccc6oc(N)nc6c5)c5c(N(C)C)ncnc54)nn3)[C@H](OC)C2)CC(=O)[C@H](C)/C=C(\C)[C@@H](O)[C@@H](OC)C(=O)[C@H](C)C[C@H](C)/C=C/C=C/C=C/1C | > 1000 |  |  | 
CC(C)n1nc(-c2ccc3oc(N)nc3c2)c2c(N)ncnc21 |  |  |  | inhibition [3]: Active; inhibition [4]: inactive
CO[C@H]1C[C@@H]2CC[C@@H](C)[C@@](O)(O2)C(=O)C(=O)N2CCCC[C@H]2C(=O)O[C@H]([C@H](C)C[C@@H]2CC[C@@H](OC(=O)NCCOCCOCCOCCOCCOCCOCCOCCOCCC(=O)NCCCCn3nc(-c4ccc5oc(N)nc5c4)c4c(N)ncnc43)[C@H](OC)C2)C[C@@H](O)[C@H](C)/C=C(\C)[C@@H](O)[C@@H](OC)C(=O)[C@H](C)C[C@H](C)/C=C/C=C/C=C/1C | 1.3 | 0.24 | 13 | 
C=CC(=O)N1CCN(c2nc(=O)n(-c3c(C)ccnc3C(C)C)c3nc(-c4c(O)cccc4F)c(F)cc23)[C@@H](C)C1 [SOTORASIB] |  |  |  | Activity [7]: inactive; Activity [8]: Active; Activity [9]: Non-Toxic; Activity [10]: Active; Activity [11]: inactive
CC(C)n1nc(-c2cc3cc(O)ccc3[nH]2)c2c(N)ncnc21 |  |  | 38 | 
CO[C@H]1C[C@@H]2CC[C@@H](C)[C@@](O)(O2)C(=O)C(=O)N2CCCC[C@H]2C(=O)O[C@H]([C@H](C)C[C@@H]2CC[C@@H](OC(=O)NCCOCCOCCOCCOCCOCCOCCOCCOCCC(=O)N3CCc4cc(Cn5nc(-c6ccc7oc(N)nc7c6)c6c(N)ncnc65)ccc4C3)[C@H](OC)C2)C[C@@H](O)[C@H](C)/C=C(\C)[C@@H](O)[C@@H](OC)C(=O)[C@H](C)C[C@H](C)/C=C/C=C/C=C/1C [RMC-5552] | 1.6 | 0.17 | 35 | 
CO[C@H]1C[C@@H]2CC[C@@H](C)[C@@](O)(O2)C(=O)C(=O)N2CCCC[C@H]2C(=O)O[C@H]([C@H](C)C[C@@H]2CC[C@@H](OC(=O)NCCOCCOCCOCCOCCOCCOCCOCCOCCC(=O)NCCCCn3nc(-c4ccc5oc(N)nc5c4)c4c(N)ncnc43)[C@H](OC)C2)C[C@@H](OC)[C@H](C)/C=C(\C)[C@@H](O)[C@@H](OC)C(=O)[C@H](C)C[C@H](C)/C=C/C=C/C=C/1C | 1.4 | 0.49 | 8.4 | 
CO[C@H]1C[C@@H]2CC[C@@H](C)[C@@](O)(O2)C(=O)C(=O)N2CCCC[C@H]2C(=O)O[C@H]([C@H](C)C[C@@H]2CC[C@@H](OC(=O)NCCOCCOCCOCCOCCOCCOCCOCCOCCC(=O)NCCS(=O)(=O)c3ccc(C(=O)N4CCOc5ccc(-c6ccc(N)nc6)cc5C4)c(C)c3F)[C@H](OC)C2)C[C@@H](O)[C@H](C)/C=C(\C)[C@@H](O)[C@@H](OC)C(=O)[C@H](C)C[C@H](C)/C=C/C=C/C=C/1C | 0.97 | 0.19 | 35 | 
